System: Wistar rats
Assay: MK-801-induced hyperlocomotion
Format: in vivo, rat
Settings: i.p., 1, 3 and 10 mg/kg, significant effect at 10 mg/kg, MK-801 0.3 mg/kg i.p.
Experimental: 8 (A). […] The dose of 0 mg/kg corresponds to subjects treated with vehicle and amphetamine (1.0 mg/kg, i.p.). Data are presented as the mean ± SEM (n = 8). One-way ANOVA F(3,28)=0.2, p > 0.05, one-way ANOVA F(3,28)=[…], p < 0.01**. (B). […] The dose of 0 mg/kg corresponds to subjects treated with vehicle and MK-801 (0.3 mg/kg, i.p.). Data are presented as the mean ± SEM (n = 8). ** p < 0.01, Newman-Keuls test, F(3,28)=5.29, p = 0.005. (C) Effects of compound 9, administered at doses ranging from 1 to 10 mg/kg, on spontaneous locomotor activity in rats. Data are presented as the mean ± SEM (n = 8). One-way ANOVA F(3,28) = 0.3, p > 0.05, one-way ANOVA F(3,28) = 6.7, p < 0.01*.
All behavioral procedures were conducted using drug-naive male Wistar rats (Charles River, Sulzfeld, Germany), (n = 8/per group). Animals were housed in groups of four per standard plastic cage under controlled environmental conditions (temperature: 22 ± 1 °C, humidity: 60%, and a 12:12 light-dark cycle with lights on at 07:00 a.m.). […]
All procedures were performed in a sound-attenuated experimental room between 9:00 a.m. and 3:00 p.m. […] Locomotor activity was measured in black octagonal cages (80 cm diameter, 30 cm height) amid dim lighting and constant white noise (65 dB). […] Locomotor activity (cm/30 min) was recorded and analyzed using an automated motion monitoring system (Videomot, TSE, Bad Homburg, Germany). […]

For `Cc1ccc2nc(-c3ccc(F)cc3)c(CC(=O)N3CCCC3)n2c1.O=C(O)C(O)C(O)C(=O)O` [Compound 17, 2-(4-Fluorophenyl)-6-methyl-3-(2-oxo-2-(pyrrolidin-1-yl)-ethyl)imidazo[1,2-a]pyridin-1-ium 3-carboxy-2,3-dihydroxy-propanoate], the “Effect on MK-801-induced hyperlocomotion” value was “reduced hyperlocomotion”.
